Laboratory results from patent publication US20260265409A1, “ANTIBODY FUSION PROTEIN TARGETING FAP AND TGFbeta, AND USE THEREOF” (NANJING LEADS BIOLABS CO., LTD., priority 2022, published 2026).

Experiments:
[1] = system: bilateral idiopathic pulmonary fibrosis model; experiment: Bleomycin-induced idiopathic pulmonary fibrosis (IPF) model in mice; format: in vivo, C57BL/6 mice
Method: In this animal pharmacodynamic study, a bilateral idiopathic pulmonary fibrosis model was induced using bleomycin instillation into the trachea of mice supplied by KCl BioTech. The efficacy of the surrogate antibody fusion protein 28H1-Trap on pulmonary fibrosis was evaluated in this model. C57BL/6 mice (Cavens Biogle (Suzhou) Co., Ltd.) aged 8-9 weeks were treated from the day of modeling and the induced pulmonary fibrosis model was established by tracheal instillation of bleomycin after the treatment. In the next three weeks, intraperitoneal doses were given twice weekly, and the body weight was measured once every two days. The specific treatments and dosages are shown in the following table: Mice were euthanized at the end of study. At the end of study, both lungs were collected from 15 surviving animals in each group (6 in the normal group) and fixed by formalin perfusion. Histological sections were made, stained with Masson, imaged (FIGS. 7A-H), and graded by pulmonary fibrosis scores. Pathological staining results are shown in FIG. 7, where black arrows indicate intact alveolar structures and the dark interstitial parts indicate collagen accumulation.

[2] = target: T1, human FAP protein expressed on 293T cells (Homo sapiens, UniProt Q12884); experiment: Cell binding assay by flow cytometry, 293T-human FAP cells
T1 construct: expressed in transfected cells; host or cells: 293T cells, PIRES-puro3 vector, puromycin selection
T1 sequence (Q12884 1-760): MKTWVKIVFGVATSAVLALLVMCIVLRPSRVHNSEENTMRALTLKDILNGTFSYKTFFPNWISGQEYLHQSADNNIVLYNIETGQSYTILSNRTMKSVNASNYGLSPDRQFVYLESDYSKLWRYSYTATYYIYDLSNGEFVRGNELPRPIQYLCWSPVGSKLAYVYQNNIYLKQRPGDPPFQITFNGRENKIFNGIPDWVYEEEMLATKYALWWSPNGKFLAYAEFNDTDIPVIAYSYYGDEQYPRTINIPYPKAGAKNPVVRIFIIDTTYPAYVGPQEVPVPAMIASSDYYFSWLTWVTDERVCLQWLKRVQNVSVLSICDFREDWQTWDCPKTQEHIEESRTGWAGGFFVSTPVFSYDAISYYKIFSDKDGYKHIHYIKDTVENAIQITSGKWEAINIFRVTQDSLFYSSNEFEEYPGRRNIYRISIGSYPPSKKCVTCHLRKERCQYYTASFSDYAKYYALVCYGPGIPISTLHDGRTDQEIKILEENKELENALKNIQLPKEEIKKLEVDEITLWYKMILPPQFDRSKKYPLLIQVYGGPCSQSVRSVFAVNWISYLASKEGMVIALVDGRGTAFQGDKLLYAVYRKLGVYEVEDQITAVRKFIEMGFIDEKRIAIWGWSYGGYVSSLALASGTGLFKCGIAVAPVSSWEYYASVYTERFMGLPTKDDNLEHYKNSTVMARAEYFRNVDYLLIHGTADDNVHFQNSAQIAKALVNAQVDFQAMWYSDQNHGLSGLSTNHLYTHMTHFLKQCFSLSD
Method: Whether the humanized antibody of the present disclosure can bind to human FAP protein stably expressed on the surface of 293T cells was determined by a cell binding assay. Firstly, the sequences encoding human FAP protein (NM_004460.2, SEQ ID NO: 31) and cynomolgus FAP (XM_005573320.2, SEQ ID NO: 32) were cloned into expression vector PIRES-puro3 (Clontech, Cat #631619) […]. The vectors were used to transfect 293T cells. […]
The human FAP antibodies (huF19-LG and sibrotuzumab) were 4-fold serially diluted from a starting concentration of 200 nM to a total of 8 concentrations and added to the cells for co-incubation at 4° C. for 30 min. […] The cells were washed twice with PBS and then resuspended, and finally, fluorescence signals were detected using the […] (BD Bioscience) flow cytometer.
Whether the mutant antibody in the present disclosure can bind to human or cynomolgus FAP protein stably expressed on the surface of 293T cells was determined by a cell binding assay. […] The cells were washed twice with PBS and then resuspended, and finally, fluorescence signals were detected using the […] (BD Bioscience) flow cytometer. […]

[3] = system: renal interstitium fibrosis model induced by left ureter ligation; experiment: UUO renal interstitium fibrosis model in mice; format: in vivo, C57BL/6J mice; conditions: 20 mg/kg and 3 mg/kg intraperitoneal every other day, day 10; FIG. 9, FIG. 10
Method: In this animal pharmacodynamic study, a renal interstitium fibrosis model was induced by left ureter ligation in mice supplied by KCl BioTech. The efficacy of the surrogate antibody fusion protein 28H1-Trap on renal fibrosis was evaluated in this model. C57BL/6J mice (Shanghai Jihui Laboratory Animal Care Co., Ltd.) aged 8-9 weeks were randomized by weight. On the day of modeling (day 0), the mice in groups 2-4 were anesthetized with isoflurane. The abdominal cavity was opened along the ventral midline, and the left ureter of the animal was ligated. The abdomen was closed and the skin was sutured. The treatment was given intraperitoneally on the day of modeling. The animals in group 1 were anesthetized with isoflurane. The abdominal cavity was opened along the ventral midline and closed immediately, and the skin was sutured. In the next 10 days, the treatments were given intraperitoneally once every other day, and the body weight was measured once every two days. The specific treatments and dosages are shown in the following table: The animals were given an I.P. injection of the test substance on days 0, 2, 4, 6, and 8, and the animals were given the analgesic meloxicam subcutaneously on days 1-3. The body weight was recorded daily. The kidney on the UUO side were scored for fibrosis by Masson staining. […] The degree of fibrosis of the kidney was evaluated (see FIG. 10).

For “28H1-Trap: pharmacodynamic surrogate fusion protein: anti-FAP antibody 28H1 (WO2012020006) fused to TGFβR2 extracellular domain; heavy chain SEQ ID NO: 29, light chain SEQ ID NO: 28”, the “pulmonary fibrosis grading (Ashcroft scoring)” value ([1]; 20 mg/kg and 3 mg/kg vs modeling group, FIG. 8B) was “reduced the pulmonary fibrotic lesions in a dose-dependent manner”, the “grade of pulmonary fibrotic lesions (Masson staining, pathological sections)” value ([1]; 20 mg/kg intraperitoneal twice weekly, 21 days, vs modeling group, FIG. 7) was “could reduce the grade of pulmonary fibrotic lesions” and the “pulmonary fibrosis staining scoring” value ([1]; high dose (20 mg/kg) vs modeling group, FIG. 8A) was “can reduce fibrotic lesions in the lungs at a high dose”. The “binding to human FAP protein expressed on engineered 293T cells (FACS)” value [2] was “confirmed to bind to human FAP at cellular level” and the “kidney fibrosis score by Masson staining” value [3] was “significant dose-dependent ameliorative effect on the fibrosis in the renal cortex of the kidney”.
